# ChEMBL document CHEMBL1145215, “Design, synthesis, and biological evaluation of achiral analogs of duocarmycin SA” (Bioorg Med Chem Lett, 2005)
# What was measured:
# [1] = system: LS174T; assay: Cytotoxicity against LS174T (human colon carcinoma )cells; type: functional, cell-based
# [2] = system: K562; assay: Cytotoxicity was determined against K562 (chronic human myeloid leukemia )cells; type: functional, cell-based
Structure (SMILES),IC50 [1] [nM],IC50 [2] [nM]
COC(=O)c1[nH]c2c(O)cc(NC(=O)c3cc4cc(NC(=O)c5cc6ccccc6o5)ccc4[nH]3)c(CCCl)c2c1C(=O)OC,4,25
COC(=O)c1[nH]c2c(O)cc(NC(=O)c3cc4cc(OC)c(OC)c(OC)c4[nH]3)c(CCCl)c2c1C(=O)OC,4,25
COc1cc2cc(C(=O)Nc3cc(O)ccc3CCCl)[nH]c2c(OC)c1OC,13800,1470
